Measured values as given in ChEMBL document CHEMBL3045006, “Synthesis and anticonvulsant activity of 8-alkoxy-5,6-dihydro-4H-benzo[f][1,2,4]triazolo[4,3-a]azepine derivatives” (Med Chem Res, 2012).
Activity calls are given as the source filed them. No cut-off for these calls is given here.

Columns and labels:
[1] = system: Mus musculus; test: Protective index, ratio of TD50 for Mus musculus Swiss (mouse) to ED50 for Mus musculus Swiss (mouse) by subcutaneous pentylenetetrazole-induced seizure test; type: functional
[2] = organism: Mus musculus; test: Protective index, ratio of TD50 for Mus musculus Swiss (mouse) to ED50 for Mus musculus Swiss (mouse) by maximal electroshock-induced seizure test; type: functional
[3] = (§1) Neurotoxicity in ip dosed Mus musculus Swiss (mouse) assessed as minimum motor impairment by rotarod test; type: toxicity, organism-based; details: Swiss, in vivo
[4] = system: Mus musculus; test: Anticonvulsant activity against subcutaneous pentylenetetrazole-induced seizures in ip dosed Mus musculus Swiss (mouse) at 30 mg/kg, ip measured at phase 2; type: functional; details: sc
[5] = system: Mus musculus; test: Anticonvulsant activity against maximal electroshock-induced seizures in ip dosed Mus musculus Swiss (mouse) administered 30 min before MES induction measured at phase 2; type: functional
[6] = system: Mus musculus; test: Anticonvulsant activity against subcutaneous pentylenetetrazole-induced seizures in Mus musculus Swiss (mouse) at 100 mg/kg, ip measured at phase 1; type: functional, organism-based; set-up: dose 100 mg/kg
[7] = system: Mus musculus; test: Anticonvulsant activity against subcutaneous pentylenetetrazole-induced seizures in Mus musculus Swiss (mouse) at 30 mg/kg, ip measured at phase 1; type: functional, organism-based; set-up: dose 30 mg/kg
[8] = system: Mus musculus; test: Anticonvulsant activity against maximal electroshock-induced seizures in Mus musculus Swiss (mouse) at 30 mg/kg, ip administered 30 min before MES induction measured at phase 1; type: functional, organism-based; set-up: dose 30 mg/kg
[9] = system: Mus musculus; test: Anticonvulsant activity against maximal electroshock-induced seizures in Mus musculus Swiss (mouse) at 100 mg/kg, ip administered 30 min before MES induction measured at phase 1; type: functional, organism-based; set-up: dose 100 mg/kg
[10] = system: Mus musculus; test: Anticonvulsant activity against maximal electroshock-induced seizures in Mus musculus Swiss (mouse) at 300 mg/kg, ip administered 30 min before MES induction measured at phase 1; type: functional, organism-based; set-up: dose 300 mg/kg
[11] = system: Mus musculus; test: as §1; type: toxicity, organism-based; details: in vivo

Compound | Ratio TD50/ED50 [1] | Ratio TD50/ED50 [2] | TD50 [3] [mg/kg] | ED50 [4] [mg/kg] | ED50 [5] [mg/kg] | Activity [6] | Activity [7] | Activity [8] | Activity [9] | Activity [10] | TD50 [11]
c1ccc(COc2ccc3c(c2)CCCc2nncn2-3)cc1 | 1 | 3.3 | 78.9 | 78.9 | 23.7 | Active | inactive | Active |  |  | 
NC(=O)N1c2ccccc2C=Cc2ccccc21 [CARBAMAZEPINE] |  |  |  | > 100 | 8.8 |  |  |  |  |  | 
Fc1ccccc1COc1ccc2c(c1)CCCc1nncn1-2 | 2.4 | 4.5 | 84.9 | 35.4 | 19 | Active |  | Active |  |  | 
CCCCCCCOc1ccc2c(c1)CCCc1nncn1-2 | 2.6 | 3.5 | 68.4 | 26.4 | 19.7 | Active |  | Active |  |  | 
Fc1cccc(COc2ccc3c(c2)CCCc2nncn2-3)c1 |  |  | > 100 | > 100 | 27.4 | Active | inactive |  | Active |  | 
Brc1ccc(COc2ccc3c(c2)CCCc2nncn2-3)cc1 | 0.9 | 3 | 96.2 | > 100 | 27 | Active | inactive |  | Active |  | 
Cc1ccc(COc2ccc3c(c2)CCCc2nncn2-3)cc1 | 1.1 | 3.6 | 82.9 | 90.1 | 27.4 | inactive | inactive |  | Active |  | 
Fc1ccc(COc2ccc3c(c2)CCCc2nncn2-3)cc1 | 2.1 | 3.6 | 97.4 | 47.3 | 27.4 | Active |  |  | Active |  | 
Clc1ccc(COc2ccc3c(c2)CCCc2nncn2-3)cc1 | 1.4 | 3.7 | 98.6 | 68.2 | 27.4 | Active | inactive |  | Active |  | 
COc1ccc2c(c1)CCCc1nncn1-2 |  |  |  |  |  | inactive | inactive | Active |  | Active | 
Clc1ccccc1COc1ccc2c(c1)CCCc1nncn1-2 | <0.7 | 3.4 | 70.9 | > 100 | 20.5 | inactive | inactive | Active |  |  | 
O=C1NC(=O)C(c2ccccc2)(c2ccccc2)N1 [PHENYTOIN] |  |  |  | > 300 |  |  |  |  |  |  | 
CCC1(c2ccccc2)C(=O)NC(=O)NC1=O [PHENOBARBITAL] |  |  |  | 13.2 | 21.8 |  |  |  |  |  | 
CCCCOc1ccc2c(c1)CCCc1nncn1-2 | 2 | 3.5 | 73.3 | 36.7 | 21.2 | Active |  | Active |  |  | 
CCCCCOc1ccc2c(c1)CCCc1nncn1-2 | 5.4 | 6.5 | 114 | 21.2 | 17.5 |  | Active | Active |  |  | 
Clc1cccc(COc2ccc3c(c2)CCCc2nncn2-3)c1 | 1.5 | 4.1 | 120 | 80.7 | 29.5 | Active | inactive |  | Active |  | 
CCCC(CCC)C(=O)O [VALPROIC ACID] |  |  |  | 149 |  |  |  |  |  |  | 
CCCCCCOc1ccc2c(c1)CCCc1nncn1-2 | 3.4 | 4.8 | 84.2 | 24.6 | 17.7 |  |  | Active |  |  | 
CCCOc1ccc2c(c1)CCCc1nncn1-2 |  |  |  | > 100 | 73.3 | inactive | inactive |  | Active |  | Not Active
